Target: human 5-HT2C(VSV) (Homo sapiens, UniProt P28335, I156V/I160V/N158S)
Test: cell-based

Chain of human 5-HT2C(VSV) (P28335 33-458 I156V/N158S/I160V limits assumed): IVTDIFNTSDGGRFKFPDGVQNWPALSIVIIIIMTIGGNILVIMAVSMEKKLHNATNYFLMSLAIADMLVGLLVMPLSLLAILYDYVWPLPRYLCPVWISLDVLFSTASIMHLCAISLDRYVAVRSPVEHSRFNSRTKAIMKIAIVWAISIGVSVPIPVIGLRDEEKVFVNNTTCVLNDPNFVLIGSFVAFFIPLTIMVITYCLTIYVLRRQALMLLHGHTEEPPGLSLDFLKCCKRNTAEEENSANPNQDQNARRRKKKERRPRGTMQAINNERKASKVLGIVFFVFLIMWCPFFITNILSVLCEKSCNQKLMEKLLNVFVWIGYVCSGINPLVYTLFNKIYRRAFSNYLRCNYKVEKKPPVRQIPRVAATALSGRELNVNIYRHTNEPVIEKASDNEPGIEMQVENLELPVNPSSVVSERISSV

Structure (SMILES) | EC50
CCn1cc(CCN(C)C)c2c(OCc3ccc(Cl)cc3)cc(F)cc21 [1-10b, 2-(4-(4-chlorobenzyloxy)-1-ethyl-6-fluoro-1H-indol-3-yl)-N,N-dimethylethanamine] | 500 to 10000 nM
CCn1cc(CCN(C)C)c2c(OCc3ccc(OC(F)(F)F)cc3)cc(F)cc21 [1-11b, 2-(1-ethyl-6-fluoro-4-(4-(trifluoromethoxy)benzyloxy)-1H-indol-3-yl)-N,N-dimethylethanamine] | 500 to 10000 nM
CCn1cc(CCN(C)C)c2c(OCc3ccc(C(F)(F)F)cc3)cc(F)cc21 [1-12b, 2-(1-ethyl-6-fluoro-4-(4-(trifluoromethyl)benzyloxy)-1H-indol-3-yl)-N,N-dimethylethanamine] | 500 to 10000 nM
CCn1cc(CCN(C)C)c2c(OCc3ccccc3C(F)(F)F)cc(F)cc21 [1-13b, 2-(1-ethyl-6-fluoro-4-(2-(trifluoromethyl)benzyloxy)-1H-indol-3-yl)-N,N-dimethylethanamine] | 500 to 10000 nM
CCn1cc(CCN(C)C)c2c(OCc3ccc(F)cc3)cc(F)cc21 [1-14b, 2-(1-ethyl-6-fluoro-4-(4-fluorobenzyloxy)-1H-indol-3-yl)-N,N-dimethylethanamine] | 1 to 500 nM
CCn1cc(CCN(C)C)c2c(OCc3ccc(OC)cc3)cc(F)cc21 [1-15b, 2-(1-ethyl-6-fluoro-4-(4-methoxybenzyloxy)-1H-indol-3-yl)-N,N-dimethylethanamine] | 1 to 500 nM
CCn1cc(CCN(C)C)c2c(OCc3cccc(C(F)(F)F)c3)cc(F)cc21 [1-16b, 2-(1-ethyl-6-fluoro-4-(3-(trifluoromethyl)benzyloxy)-1H-indol-3-yl)-N,N-dimethylethanamine] | 500 to 10000 nM
CCn1cc(CCN(C)C)c2c(OCc3cc(F)ccc3C)cc(F)cc21 [1-17b, 2-(1-ethyl-6-fluoro-4-(5-fluoro-2-methylbenzyloxy)-1H-indol-3-yl)-N,N-dimethylethanamine] | 1 to 500 nM
CCn1cc(CCN(C)C)c2c(OCc3ccncc3)cc(F)cc21 [1-18b, 2-(1-ethyl-6-fluoro-4-(pyridin-4-ylmethoxy)-1H-indol-3-yl)-N,N-dimethylethanamine] | 500 to 10000 nM
CCn1cc(CCN(C)C)c2c(OCc3ccsc3)cc(F)cc21 [1-19b, 2-(1-ethyl-6-fluoro-4-(thiophen-3-ylmethoxy)-1H-indol-3-yl)-N,N-dimethylethanamine] | 1 to 500 nM
CN(C)CCc1cn(C)c2ccc(F)c(OCc3cccs3)c12 [1-20a, 2-(5-fluoro-1-methyl-4-(thiophen-2-ylmethoxy)-1H-indol-3-yl)-N,N-dimethylethanamine] | 1 to 500 nM
CCn1cc(CCN(C)C)c2c(Oc3ccccc3[N+](=O)[O-])ccc(F)c21 [2-2, 2-(1-ethyl-7-fluoro-4-(2-nitrophenoxy)-1H-indol-3-yl)-N,N-dimethylethanamine] | 500 to 10000 nM
CCn1cc(CCN(C)C)c2c(Oc3ccccc3N)ccc(F)c21 [2-3, 2-(3-(2-(dimethylamino)ethyl)-1-ethyl-7-fluoro-1H-indol-4-yloxy)aniline] | 1 to 500 nM
COc1ccc(-c2ccccc2)c2c1c(CCN(C)C)cn2C [6-6, 2-(4-methoxy-1-methyl-7-phenyl-1H-indol-3-yl)-N,N-dimethylethanamine] | 1 to 500 nM
COc1ccc(-c2cccs2)c2c1c(CCN(C)C)cn2C [6-7, 2-(4-methoxy-1-methyl-7-(thiophen-2-yl)-1H-indol-3-yl)-N,N-dimethylethanamine] | 500 to 10000 nM
COc1ccc(-c2ccco2)c2c1c(CCN(C)C)cn2C [6-8, 2-(7-(furan-2-yl)-4-methoxy-1-methyl-1H-indol-3-yl)-N,N-dimethylethanamine] | 500 to 10000 nM
COc1ccc(-c2ccoc2)c2c1c(CCN(C)C)cn2C [6-9, 2-(7-(furan-3-yl)-4-methoxy-1-methyl-1H-indol-3-yl)-N,N-dimethylethanamine] | 500 to 10000 nM
COc1ccc(-c2ccc[nH]2)c2c1c(CCN(C)C)cn2C [6-10, 2-(4-methoxy-1-methyl-7-(1H-pyrrol-2-yl)-1H-indol-3-yl)-N,N-dimethylethanamine] | 500 to 10000 nM
COc1ccc(C#CCO)c2c1c(CCN(C)C)cn2C [6-11, 3-(3-(2-(dimethylamino)ethyl)-4-methoxy-1-methyl-1H-indol-7-yl)prop-2-yn-1-ol] | 1 to 500 nM
COc1ccc(Nc2ccccc2)c2c1c(CCN(C)C)cn2C [6-12, 3-(2-dimethylaminoethyl)-4-methoxy-1-methyl-N-phenyl-1H-indol-7-amine] | 1 to 500 nM
COc1ccc(-c2ccsc2)c2c1c(CCN(C)C)cn2C [6-13, 2-(4-methoxy-1-methyl-7-(thiophen-3-yl)-1H-indol-3-yl)-N,N-dimethylethanamine] | 500 to 10000 nM
COc1ccc(-c2cccnc2)c2c1c(CCN(C)C)cn2C [6-14, 2-(4-methoxy-1-methyl-7-(pyridin-3-yl)-1H-indol-3-yl)-N,N-dimethylethanamine] | 1 to 500 nM
CN(C)CCc1cn(Cc2ccccc2)c2c(F)ccc(OCc3ccccc3)c12 [7-2, 2-(1-benzyl-4-(benzyloxy)-7-fluoro-1H-indol-3-yl)-N,N-dimethylethanamine] | 500 to 10000 nM
CN(C)CCc1cn(Cc2ccccc2)c2c(F)ccc(O)c12 [7-3, 1-benzyl-3-(2-(dimethylamino)ethyl)-7-fluoro-1H-indol-4-ol] | 500 to 10000 nM

Structure (SMILES) | EC50
CN(C)CCc1cn(Cc2cccs2)c2c(F)ccc(OCc3ccccc3)c12 [7-4, 2-(4-(benzyloxy)-7-fluoro-1-(thiophen-2-ylmethyl)-1H-indol-3-yl)-N,N-dimethylethanamine] | 1 to 500 nM
CN(C)CCc1cn(Cc2ccc3ccccc3c2)c2c(F)ccc(OCc3ccccc3)c12 [7-6, 2-(4-(benzyloxy)-7-fluoro-1-(naphthalen-2-ylmethyl)-1H-indol-3-yl)-N,N-dimethylethanamine] | 1 to 500 nM
COc1ccc(F)c2c1c(C(C)CN)cn2C (stereo not drawn) [9-5, 2-(7-fluoro-4-methoxy-1-methyl-1H-indol-3-yl)propan-1-amine] | 1 to 500 nM
CCn1cc(CCN2CCOCC2)c2c(O)cc(F)cc21 [11-5, 1-ethyl-6-fluoro-3-(2-morpholinoethyl)-1H-indol-4-ol] | 1 to 500 nM
CCn1cc(CCN2CCCC2)c2c(O)cc(F)cc21 [11-6, 1-ethyl-6-fluoro-3-(2-(pyrrolidin-1-yl)ethyl)-1H-indol-4-ol] | 1 to 500 nM
CCn1cc(CCNc2ccccc2)c2c(O)ccc(F)c21 [11-7, 1-ethyl-7-fluoro-3-(2-(phenylamino)ethyl)-1H-indol-4-ol] | 500 to 10000 nM
COc1ccc(F)c2c1c(CCN1CCOCC1)cn2C [11-9, 4-(2-(7-fluoro-4-methoxy-1-methyl-1H-indol-3-yl)ethyl)morpholine] | 1 to 500 nM
COc1ccc(F)c2c1c(CCN1CCCC1)cn2C [11-10, 7-fluoro-4-methoxy-1-methyl-3-(2-(pyrrolidin-1-yl)ethyl)-1H-indole] | 1 to 500 nM
CCn1cc(CCNCCOC)c2c(O)cc(F)cc21 [11-11, 1-ethyl-6-fluoro-3-(2-(2-methoxyethylamino)ethyl)-1H-inol-4-ol] | 1 to 500 nM
CCn1cc(CCN2CCCOCC2)c2c(O)cc(F)cc21 [11-12, 3-(2-(1,4-oxazepan-4-yl)ethyl)-1-ethyl-6-fluoro-1H-indol-4-ol] | 500 to 10000 nM
CCn1cc(CCN2C[C@@H](C)O[C@@H](C)C2)c2c(O)cc(F)cc21 [11-13] | 500 to 10000 nM
CCn1cc(CCN2CCC(F)(F)C2)c2c(O)cc(F)cc21 [11-14, 3-(2-(3,3-difluoropyrrolidin-1-yl)ethyl)-1-ethyl-6-fluoro-1H-indol-4-ol] | 500 to 10000 nM
CCn1cc(CCN2CCNCC2)c2c(O)cc(F)cc21 [11-15, 1-ethyl-6-fluoro-3-(2-(piperazin-1-yl)ethyl)-1H-indol-4-ol] | 500 to 10000 nM
COc1cc(F)cc2c1c(CCN(C)C)cn2S(=O)(=O)c1ccccc1 [15-2, 2-(6-fluoro-4-methoxy-1-(phenylsulfonyl)-1H-indol-3-yl)-N,N-dimethylethan amine] | 500 to 10000 nM
COc1c(F)ccc2c1c(CCN1CCc3ccc(Cl)cc3C(C)C1)cn2C (stereo not drawn) [17-8, 8-chloro-3-(2-(5-fluoro-4-methoxy-1-methyl-1H-indol-3-yl)ethyl)-1-methyl-2,3,4,5-tetrahydro-1H-benzo[d]azepine] | 1 to 500 nM
COc1c(F)ccc2c1c(CCN1CCCC1C(N)=O)cn2C (stereo not drawn) [17-9, 1-(2-(5-fluoro-4-methoxy-1-methyl-1H-indol-3-yl)ethyl)pyrrolidine-2-carboxamide] | 500 to 10000 nM
COc1c(F)ccc2c1c(CCN1CCNCC1)cn2C [17-10, 5-fluoro-4-methoxy-1-methyl-3-(2-(piperazin-1-yl)ethyl)-1H-indole] | 500 to 10000 nM
COc1c(F)ccc2c1c(CCNCCCCc1ccccc1)cn2C [17-13, N-(2-(5-fluoro-4-methoxy-1-methyl-1H-indol-3-yl)ethyl)-4-phenylbutan-1-amine] | 1 to 500 nM
COc1c(F)ccc2c1c(CCN1CCN(c3ccccc3)CC1)cn2C [17-14, 5-fluoro-4-methoxy-1-methyl-3-(2-(4-phenylpiperazin-1-yl)ethyl)-1H-indole] | 500 to 10000 nM
COc1c(F)ccc2c1c(CCN1CCN(c3cccc(Cl)c3)CC1)cn2C [17-15, 3-(2-(4-(3-chlorophenyl)piperazin-1-yl)ethyl)-5-fluoro-4-methoxy-1-methyl-1H-indole] | 1 to 500 nM
COc1c(F)ccc2c1c(CCN[C@H]1CCCc3ccccc31)cn2C [17-16, (S)-N-(2-(5-fluoro-4-methoxy-1-methyl-1H-indol-3-yl)ethyl)-1,2,3,4-tetrahydronaphthalen-1-amine] | 1 to 500 nM
COc1c(F)ccc2c1c(CCN[C@@H]1CCCc3ccccc31)cn2C [17-17, (R)-N-(2-(5-fluoro-4-methoxy-1-methyl-1H-indol-3-yl)ethyl)-1,2,3,4-tetrahydronaphthalen-1-amine] | 1 to 500 nM
COc1c(F)ccc2c1c(CCNc1cccc(N3CCN(C)CC3)c1)cn2C [17-18, N-(2-(5-fluoro-4-methoxy-1-methyl-1H-indol-3-yl)ethyl)-3-(4-methylpiperazin-1-yl)aniline] | 1 to 500 nM
CCCn1cc(CCNCc2cccc(C)n2)c2c(O)c(F)ccc21 [17-19, 5-fluoro-3-(2-(((6-methylpyridin-2-yl)methyl)amino)ethyl)-1-propyl-1H-indol-4-ol] | < 10000 nM

Reference: patent US8912220B2 (priority 2009, dated 2014)
